US12612407B2, “Imidazo[2,1-f][1,2,4]triazin-4-amine derivatives as TLR7 agonist” (BEIGENE, LTD., priority 2020, dated 2026)

Biological target: T1, human TLR7 (Homo sapiens, UniProt Q9NYK1)
T1 construct: host or cells: HEK293 (HEK-Blue hTLR7)
T1 sequence (Q9NYK1 27-1049): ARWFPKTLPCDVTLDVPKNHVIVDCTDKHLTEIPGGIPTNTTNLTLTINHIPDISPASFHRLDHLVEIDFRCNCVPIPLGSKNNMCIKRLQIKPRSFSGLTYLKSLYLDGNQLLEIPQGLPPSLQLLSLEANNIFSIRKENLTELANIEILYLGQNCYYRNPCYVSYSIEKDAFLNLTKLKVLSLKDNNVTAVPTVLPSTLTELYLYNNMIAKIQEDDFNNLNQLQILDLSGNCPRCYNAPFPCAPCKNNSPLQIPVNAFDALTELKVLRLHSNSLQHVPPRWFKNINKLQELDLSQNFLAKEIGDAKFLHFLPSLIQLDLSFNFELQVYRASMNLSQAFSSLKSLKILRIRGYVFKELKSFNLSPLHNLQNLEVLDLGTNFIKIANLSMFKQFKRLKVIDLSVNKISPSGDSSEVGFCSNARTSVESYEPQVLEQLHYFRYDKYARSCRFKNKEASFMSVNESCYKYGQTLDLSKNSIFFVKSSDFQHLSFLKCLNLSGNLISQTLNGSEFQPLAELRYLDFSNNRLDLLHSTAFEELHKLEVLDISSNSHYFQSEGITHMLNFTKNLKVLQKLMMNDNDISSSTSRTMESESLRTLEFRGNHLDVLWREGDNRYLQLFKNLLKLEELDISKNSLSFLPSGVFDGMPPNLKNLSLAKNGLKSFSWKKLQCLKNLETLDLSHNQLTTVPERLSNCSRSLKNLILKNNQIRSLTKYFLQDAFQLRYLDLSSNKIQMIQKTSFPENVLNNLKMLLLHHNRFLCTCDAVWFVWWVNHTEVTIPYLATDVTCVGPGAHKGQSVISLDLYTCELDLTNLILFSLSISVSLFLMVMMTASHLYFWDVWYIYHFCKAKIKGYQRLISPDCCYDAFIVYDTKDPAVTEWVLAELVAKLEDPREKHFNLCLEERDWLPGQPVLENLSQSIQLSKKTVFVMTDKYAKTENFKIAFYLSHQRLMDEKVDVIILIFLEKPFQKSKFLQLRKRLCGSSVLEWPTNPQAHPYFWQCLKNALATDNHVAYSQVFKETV
Assay: HEK293-Blue hTLR7 Reporter Assay (QUANTI-BLUE, SEAP readout)
Type: cell-based
Conditions: HEK-Blue-hTLR7 cells, 24 hrs treatment, Table 1, B1-B232
Method in brief: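 Compound titrations were applied for 24 h at 37° C to reporter HEK293 cells (4×10^4 per well) in which human TLR7 activation drives secreted alkaline phosphatase. Supernatants reacted with Quanti-blue 10-30 min, absorbance read at 620-655 nm, and EC50 derived by sigmoidal curve fitting.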

Molecule | EC50
CCCCOc1nc(N)c2ncc(Cc3cnc(N4CCN(C(=O)CN5CCNCC5)CC4)c(C)c3)n2n1 [Compound B40, 1-(4-(5-((4-amino-2-butoxyimidazo[2,1-f][1,2,4]triazin-7-yl)methyl)-3-methylpyridin-2-yl)piperazin-1-yl)-2-(piperazin-1-yl)ethan-1-one] | 908 nM
CCC(CC)Nc1nc(N)c2ncc(Cc3cnc(N4CCNCC4)c(C)c3)n2n1 [Compound B210, 7-((5-methyl-6-(piperazin-1-yl)pyridin-3-yl)methyl)-N2-(pentan-3-yl)imidazo[2,1-f][1,2,4]triazine-2,4-diamine] | 12 nM
CCCC(CC)Oc1nc(N)c2ncc(Cc3cnc(N4CCN(C(=O)CNC)CC4)c(C)c3)n2n1 (stereo not shown) [Compound B181, 1-(4-(5-((4-amino-2-(hexan-3-yloxy)imidazo[2,1-f][1,2,4]triazin-7-yl)methyl)-3-methylpyridin-2-yl)piperazin-1-yl)-2-(methylamino)ethan-1-one] | 7.8 nM
C=CCCOc1nc(N)c2ncc(Cc3cnc(N4CCNCC4)c(C)c3)n2n1 [Compound B80, 2-(but-3-en-1-yloxy)-7-((5-methyl-6-(piperazin-1-yl)pyridin-3-yl)methyl)imidazo[2,1-f][1,2,4]triazin-4-amine] | 242 nM
Cc1cc(Cc2cnc3c(N)nc(OCCCc4ccccc4)nn23)cnc1N1CCNCC1 [Compound B31, 7-((5-methyl-6-(piperazin-1-yl)pyridin-3-yl)methyl)-2-(3-phenylpropoxy)imidazo[2,1-f][1,2,4]triazin-4-amine] | > 10000 nM
CNCC(C)Oc1nc(N)c2ncc(Cc3cnc(N4CCNCC4)c(C)c3)n2n1 (stereo not shown) [Compound B206, 7-((5-methyl-6-(piperazin-1-yl)pyridin-3-yl)methyl)-2-((1-(methylamino)propan-2-yl)oxy)imidazo[2,1-f][1,2,4]triazin-4-amine] | 5610 nM
CCCCOc1nc(N)c2ncc(Cc3ccc(N4CCNCC4)c(OCCC)c3)n2n1 [Compound B99, 2-butoxy-7-(4-(piperazin-1-yl)-3-propoxybenzyl)imidazo[2,1-f][1,2,4]triazin-4-amine] | 926 nM
2-butoxy-7-((5-methyl-6-(2,7-diazaspiro[3.5]nonan-7-yl)pyridin-3-yl)methyl)imidazo[2,1-f][1,2,4]triazin-4-amine [Compound B86] | 202 nM
CCCCOc1nc(N)c2ncc(Cc3cnc(N4CCN(CCOC)CC4)c(C)c3)n2n1 [Compound B107, 2-butoxy-7-((6-(4-(2-methoxyethyl)piperazin-1-yl)-5-methylpyridin-3-yl)methyl)imidazo[2,1-f][1,2,4]triazin-4-amine] | 185 nM
CCCCOc1nc(N)c2ncc(Cc3cnc(N4CCC5(CCCC5)CC4)c(C)c3)n2n1 [Compound B83, 2-butoxy-7-((5-methyl-6-(8-azaspiro[4.5]decan-8-yl)pyridin-3-yl)methyl)imidazo[2,1-f][1,2,4]triazin-4-amine] | > 10000 nM
CCC[C@H](CC)Oc1nc(N)c2ncc(Cc3cnc(N4CCNCC4)c(C)c3)n2n1 (single isomer, unassigned) [Compound B224] | 5.1 nM
CCCC(C)Oc1nc(N)c2ncc(Cc3cnc(N4CCN(C(=O)CN(C)C)CC4)c(C)c3)n2n1 (stereo not shown) [Compound B94, 1-(4-(5-((4-amino-2-(pentan-2-yloxy)imidazo[2,1-f] [1,2,4]triazin-7-yl)methyl)-3-methylpyridin-2-yl)piperazin-1-yl)-2-(dimethylamino)ethan-1-one] | 13 nM
CCCCOc1nc(N)c2ncc(Cc3cnc(N4CCCCCC4)c(C)c3)n2n1 [Compound B35, 7-((6-(azepan-1-yl)-5-methylpyridin-3-yl)methyl)-2-butoxyimidazo[2,1-f][1,2,4]triazin-4-amine] | > 10000 nM
2-butoxy-7-((6-(4-ethylpiperazin-1-yl)-5-methylpyridin-3-yl)methyl)imidazo[2,1-f][1,2,4]triazin-4-amine [Compound B115] | 190 nM
CCCCOc1nc(N)c2ncc(Cc3cnc(N4CCC(N5CCN(C)CC5)CC4)c(C)c3)n2n1 [Compound B130, 2-butoxy-7-((5-methyl-6-(4-(4-methylpiperazin-1-yl)piperidin-1-yl)pyridin-3-yl)methyl)imidazo[2,1-f][1,2,4]triazin-4-amine] | 38 nM
CCCCOc1nc(N)c2ncc(Cc3cnc(N4CCN(C(=O)CN(C)C)[C@@H](C)C4)c(C)c3)n2n1 [Compound B179, (S)-1-(4-(5-((4-amino-2-butoxyimidazo[2,1-f][1,2,4]triazin-7-yl)methyl)-3-methylpyridin-2-yl)-2-methylpiperazin-1-yl)-2-(dimethylamino)ethan-1-one] | 38 nM
CCC(CC)Oc1nc(N)c2ncc(Cc3cnc(N4CCC(N(C)C)CC4)c(C)c3)n2n1 [Compound B187, 7-((6-(4-(dimethylamino)piperidin-1-yl)-5-methylpyridin-3-yl)methyl)-2-(pentan-3-yloxy)imidazo[2,1-f][1,2,4]triazin-4-amine] | 29 nM
CCCCOc1nc(N)c2ncc(Cc3cnc(N4CCC(CN(C)C)CC4)c(C)c3)n2n1 [Compound B59, 2-butoxy-7-((6-(4-((dimethylamino)methyl)piperidin-1-yl)-5-methylpyridin-3-yl)methyl)imidazo[2,1-f][1,2,4]triazin-4-amine] | 20 nM
CCC[C@H](C)Oc1nc(N)c2ncc(Cc3cnc(N4CCN(C(=O)CNC)CC4)c(C)c3)n2n1 [Compound B154, (S)-1-(4-(5-((4-amino-2-(pentan-2-yloxy)imidazo[2,1-f][1,2,4]triazin-7-yl)methyl)-3-methylpyridin-2-yl)piperazin-1-yl)-2-(methylamino)ethan-1-one] | 1.6 nM
CCCOc1nc(N)c2ncc(Cc3cnc(N4CCNCC4)c(C)c3)n2n1 [Compound B93, 7-((5-methyl-6-(piperazin-1-yl)pyridin-3-yl)methyl)-2-propoxyimidazo[2,1-f][1,2,4]triazin-4-amine] | 641 nM
CCCCOc1nc(N)c2ncc(Cc3cnc(N4CCN(C(=O)[C@@H](N)CC(C)C)CC4)c(C)c3)n2n1 [Compound B69, (S)-2-amino-1-(4-(5-((4-amino-2-butoxyimidazo[2,1-f][1,2,4]triazin-7-yl)methyl)-3-methylpyridin-2-yl)piperazin-1-yl)-4-methylpentan-1-one] | 313 nM
Cc1cc(Cc2cnc3c(N)nc(OCC4CCCCC4)nn23)cnc1N1CCNCC1 [Compound B192, 2-(cyclohexylmethoxy)-7-((5-methyl-6-(piperazin-1-yl)pyridin-3-yl)methyl)imidazo[2,1-f][1,2,4]triazin-4-amine] | 2680 nM
CCCCOc1nc(N)c2ncc(Cc3cnc(N4CCN[C@@H](C)C4)c(C)c3)n2n1 [Compound B132, (S)-2-butoxy-7-((5-methyl-6-(3-methylpiperazin-1-yl)pyridin-3-yl)methyl)imidazo[2,1-f][1,2,4]triazin-4-amine] | 48 nM
CCCCOc1nc(N)c2ncc(Cc3ccc(N4CCNCC4)nc3C)n2n1 [Compound B53, 2-butoxy-7-((2-methyl-6-(piperazin-1-yl)pyridin-3-yl)methyl)imidazo[2,1-f][1,2,4]triazin-4-amine] | 803 nM
CCCC(C)Oc1nc(N)c2ncc(Cc3cnc(N4CCN(C(=O)CNC)CC4)c(C)c3)n2n1 (stereo not shown) [Compound B111, 1-(4-(5-((4-amino-2-(pentan-2-yloxy)imidazo[2,1-f][1,2,4]triazin-7-yl)methyl)-3-methylpyridin-2-yl)piperazin-1-yl)-2-(methylamino)ethan-1-one] | 9.8 nM
CCCCOc1nc(N)c2ncc(Cc3ccc(C4CCN(C(=O)CN(C)C)CC4)cc3)n2n1 [Compound B14, 1-(4-(4-((4-amino-2-butoxyimidazo[2,1-f][1,2,4]triazin-7-yl)methyl)phenyl)piperidin-1-yl)-2-(dimethylamino)ethan-1-one] | 96 nM
CCCCOc1nc(N)c2ncc(Cc3cnc(N4CCC(NC(=O)CN(C)C)CC4)c(C)c3)n2n1 [Compound B142, N-(1-(5-((4-amino-2-butoxyimidazo[2,1-f][1,2,4]triazin-7-yl)methyl)-3-methylpyridin-2-yl)piperidin-4-yl)-2-(dimethylamino)acetamidea] | 45 nM
CCCCOc1nc(N)c2ncc(Cc3cnc(N4CC(C)NC(C)C4)c(C)c3)n2n1 (stereo not shown) [Compound B55, 2-butoxy-7-((6-(3,5-dimethylpiperazin-1-yl)-5-methylpyridin-3-yl)methyl)imidazo[2,1-f][1,2,4]triazin-4-amine] | 196 nM
